Data taken from US20230355644A1, “ACTIVE INGREDIENTS AND DRUGS FOR THE THERAPY OF VIRAL DISEASES, ESPECIALLY CORONA INFECTIONS, ESPECIALLY COVID-19” (Creative Therapeutics GmbH, priority 2020, published 2023).
Read-outs that look alike come from different tables or passages of the source.

Tests used:
[1] = system: HI-viruses; assay: EASY-HIT assay; type: cell-based
[2] = system: SARS-CoV-2; assay: therapeutic effect against SARS-CoV-2 infection in mouse model; type: in vivo; details: K18-hACE2 transgenic mice; intra-peritoneal 150 mg/kg 30 minutes before and 500 mg/kg three hours after infection; two days post infection
Description: Studies of the Therapeutic Effect in the Mouse Model • To investigate the therapeutic effect of compound (VI-A) against SARS-CoV-2 infection in mouse model, K18-hACE2 transgenic mice were used. The viruses used were a German isolate of SARS-CoV-2. The study was conducted as a feasibility study with two groups (test group, control group) based on six mice each, i.e. a total of 12 animals. The two groups of mice were mildly anesthetized by inhalation of 3% isoflurane and intranasally inoculated with 300 KWSIU (FFU) of SARS-CoV-2. Treatment with the compound (VI-A) was performed by intra-peritoneal injection or application. Treatment of the first group began 30 minutes before infection with a compound concentration or dosage of 150 mg/kg. In addition, three hours after infection, the test mice were administered another 500 mg/kg of the compound (dissolved in 100 μl total volume of simply concentrated PBS buffer with pH 7.4). In the second group (positive control or control group), the mice were infected equally but treated with PBS buffer alone without the addition of diphenyl derivatives or triazenes (sham treatment). Two days post infection, the animals were euthanized. The clinical score (“clinical score”), comprising the recording of weight and clinical signs, of the animals was determined. To determine the success of therapy, the viral load in the lungs was determined by qPCR.

[3] = system: SARS-CoV-2; type: cell-based; details: Caco-2 cells; for decrease in viral load versus untreated cells (100%): strongest dilution 1/4000 (25 μg/ml)
[4] = system: SARS-CoV-2; type: cell-based; details: Vero-E6 cells; dilutions 1/4000 to 1/500; FIGS. 3A and 3B
[5] = system: COVID-19; details: in vivo; cited from earlier work
[6] = system: UWB1,289 ovarian cancer cells; assay: whole transcriptome sequencing (RNA-Seq) of treated ovarian cancer cells; type: cell-based; details: 24 hours; for CDKN1A transcription / DNA repair systems (MMR, BER, NER, ATM/ATR, HR) down-regulated at the transcription level / changes in the transcriptome versus non-treated controls (PCA plot, number of differentially transcribed genes) / expression of CDK family genes / CDK proteins / expression of DNA repair enzymes / transcripts of DNA repair systems: 1,000 μM compound (IV-A3) or 40 μM compound (III-A)
[7] = dilutions 1/4000 to 1/500, FIGS. 2A and 2B

CN(C)/N=N/c1ccc(C(=O)c2ccc(OS(=O)(=O)O)cc2)cc1 [compound (IV-A)]
inhibitory effect on HI-viruses [1]: first inhibitory effect
viral load in the lungs by qPCR versus positive control group [2]: significantly reduced viral load in the lungs

CN(C)/N=N/c1ccc(C(=O)c2ccc(OCCC(=O)O)cc2)cc1 [compound (VIII-A)]
inhibitory effect on HI-viruses [1]: first inhibitory effect
decrease in viral load in treated versus untreated cells ([3]; dilution of 1/500 (1000 μg/ml)): best results in terms of viral load decrease
decrease in viral load in treated versus untreated cells [3, 7]: Particularly good results
viral load in the lungs by qPCR versus positive control group [2]: significantly reduced viral load in the lungs
decrease in viral load in treated versus untreated cells [4]: greatest decrease in viral load

CCN(CCO)CCCC(C)Nc1ccnc2cc(Cl)ccc12 (stereo not drawn) [hydroxychloroquine]
efficacy in COVID-19 [5]: no evidence of efficacy

CN(C)N=Nc1ccc(C(=O)c2ccc(OS(=O)(=O)[O-])cc2)cc1.[Na+] [compound (IV-A3)]
CDKN1A transcription [6]: strongly induced
DNA repair systems (MMR, BER, NER, ATM/ATR, HR) down-regulated at the transcription level [6]: −1.09 log 2FC
changes in the transcriptome versus non-treated controls (PCA plot, number of differentially transcribed genes) [6]: more pronounced changes in the transcriptome than compound (III-A)
expression of CDK family genes / CDK proteins [6]: marked down regulation
expression of DNA repair enzymes / transcripts of DNA repair systems [6]: extensive downregulation
induction of CDKN1A ([6]; 1,000 μM compound (IV-A3), genes differentially expressed in both UWB1,289 cell lines): 4.49 log 2FC
expression of cadherin cell adhesion molecule genes, particularly CDH6 ([6]; 1,000 μM): downregulated
expression of DNA dealkylation pathway proteins (APEX1, TET1, ALKBH2) ([6]; 1,000 μM, both cell lines): consistently downregulated

CCN(CC)CCCC(C)Nc1ccnc2cc(Cl)ccc12 (stereo not drawn) [Chloroquine]
efficacy in COVID-19 [5]: no evidence of efficacy

CN(C)/N=N/c1ccc(C(=O)c2ccc(O)cc2)cc1 [compound (IV-B)]
inhibitory effect on HI-viruses [1]: first inhibitory effect
decrease in viral load in treated versus untreated cells [3, 7]: Particularly good results
decrease in viral load versus untreated cells (100%) ([3]; FIG. 2A): 50%
decrease in viral load versus untreated cells (100%) ([3]; FIG. 2B): 40%
viral load in the lungs by qPCR versus positive control group [2]: significantly reduced viral load in the lungs
decrease in viral load in treated versus untreated cells [4]: significant decrease in viral load

CN(C)/N=N/c1ccc(C(=O)c2ccc(OCCC(=O)NCC(=O)O)cc2)cc1 [compound (VI-A)]
inhibitory effect on HI-viruses [1]: first inhibitory effect
histological examination of the lung tissue versus control group [2]: significantly reduced incidence of infection
viral load in the lungs by qPCR versus positive control group [2]: significantly lower
decrease in viral load in treated versus untreated cells [4]: significant decrease in viral load

CN(C)/N=N/c1ccc(C(=O)c2ccc(O)cc2)cc1 [compound (III-A)]
CDKN1A transcription [6]: consistent upregulation
DNA repair systems (MMR, BER, NER, ATM/ATR, HR) down-regulated at the transcription level [6]: −1.09 log 2FC
changes in the transcriptome versus non-treated controls (PCA plot, number of differentially transcribed genes) [6]: sufficient change in the transcriptome
expression of CDK family genes / CDK proteins [6]: downregulation
expression of DNA repair enzymes / transcripts of DNA repair systems [6]: downregulation

Tocilizumab: monoclonal antibody approved for the treatment of various forms of rheumatoid arthritis and cytokine release syndrome
efficacy in COVID-19 [5]: ineffective
